Assay results from ChEMBL document CHEMBL1201862, “PubChem BioAssay data set” (2004).
Active and inactive are the calls of the source.

Legend:
Hexokinase HKDC1 = biological target: T1, Hexokinase HKDC1 (Homo sapiens, UniProt Q2TB90); test: HKDC1 hexokinase inhibitors, SAR follow-up, biochemical, set 2 (AID 588355); assay type: functional
T1 sequence (Q2TB90 whole entry): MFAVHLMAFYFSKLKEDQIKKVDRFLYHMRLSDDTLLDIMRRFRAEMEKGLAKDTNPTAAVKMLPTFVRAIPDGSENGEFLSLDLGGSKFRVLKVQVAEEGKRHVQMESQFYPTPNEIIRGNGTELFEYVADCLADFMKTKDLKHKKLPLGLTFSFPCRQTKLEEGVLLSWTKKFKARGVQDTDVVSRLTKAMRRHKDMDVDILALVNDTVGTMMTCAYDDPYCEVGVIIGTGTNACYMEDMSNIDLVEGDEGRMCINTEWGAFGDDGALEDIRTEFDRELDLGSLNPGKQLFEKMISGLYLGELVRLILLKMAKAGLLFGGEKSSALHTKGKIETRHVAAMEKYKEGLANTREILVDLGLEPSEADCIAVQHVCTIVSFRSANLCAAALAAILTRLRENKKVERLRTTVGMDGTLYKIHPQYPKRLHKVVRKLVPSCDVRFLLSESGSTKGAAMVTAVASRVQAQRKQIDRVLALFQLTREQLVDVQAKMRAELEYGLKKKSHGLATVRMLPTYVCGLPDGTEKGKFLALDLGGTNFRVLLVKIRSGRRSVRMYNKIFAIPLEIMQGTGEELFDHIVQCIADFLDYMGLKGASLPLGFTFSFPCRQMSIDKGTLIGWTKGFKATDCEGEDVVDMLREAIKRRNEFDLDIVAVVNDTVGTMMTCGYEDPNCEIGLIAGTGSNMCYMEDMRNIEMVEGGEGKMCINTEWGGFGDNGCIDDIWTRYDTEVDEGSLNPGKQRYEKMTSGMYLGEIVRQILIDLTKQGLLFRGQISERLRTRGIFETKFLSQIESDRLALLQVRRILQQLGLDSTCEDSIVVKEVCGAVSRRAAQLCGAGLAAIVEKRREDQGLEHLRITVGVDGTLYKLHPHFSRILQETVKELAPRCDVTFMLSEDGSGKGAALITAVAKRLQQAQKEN

Hexokinase-1 = Hexokinase-1 (Homo sapiens, UniProt P19367); test: HK1 enzyme inhibition by HKDC1 hits, SAR follow-up, selectivity assay for HKDC1 inhibitor project, biochemical, set 2, resazurin fluorescence coupled readout (AID 588356); assay type: functional
[1] = C. albicans growth with fluconazole, confirmation, fluorescence, retest (AID 2467); assay type: functional, cell-based
[2] = control 3'UTR Renilla luciferase suppression, dose response, counter-screen for Shn3 inhibitor project, cell-based, Clone20-Shn3RL, cherry-picked (AID 624133); assay type: functional
[3] = NIH-3T3 fibroblast cytotoxicity, dose response, cytotoxicity control, cell-based, fluorescence, Alamar Blue, secondary assay (AID 2327); assay type: functional;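 note: NIH-3T3 mouse fibroblasts cultured with fluconazole at 8 µg/mL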
HEK293 [4] = test: cells; conditions: Homo sapiens
[5] = HepG2 cell cytotoxicity, dose response, cytotoxicity control for Shn3 inhibitor project, CellTiter-Glo, cherry-picked (AID 624134); assay type: functional, cell-based
HEK293 [6] = test: cells; conditions: Homo sapiens; remark: listed apart in the source
[7] = Shn3 3'UTR reporter inhibitors, dose response, cell-based, Clone20 osteoblasts, firefly luciferase, cherry-picked (AID 624132); assay type: functional;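 note: firefly luciferase luminescence from reporter carrying the Shn3 3'UTR in osteoblasts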
Escherichia coli = test: microbe, parasite or virus in culture
Cytochrome P450 1A2 = biological target: T2, Cytochrome P450 1A2 (Homo sapiens, UniProt P05177);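 note: PubChem cytochrome P450 panel assay, CYP1A2 panel member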
T2 sequence (P05177 whole entry): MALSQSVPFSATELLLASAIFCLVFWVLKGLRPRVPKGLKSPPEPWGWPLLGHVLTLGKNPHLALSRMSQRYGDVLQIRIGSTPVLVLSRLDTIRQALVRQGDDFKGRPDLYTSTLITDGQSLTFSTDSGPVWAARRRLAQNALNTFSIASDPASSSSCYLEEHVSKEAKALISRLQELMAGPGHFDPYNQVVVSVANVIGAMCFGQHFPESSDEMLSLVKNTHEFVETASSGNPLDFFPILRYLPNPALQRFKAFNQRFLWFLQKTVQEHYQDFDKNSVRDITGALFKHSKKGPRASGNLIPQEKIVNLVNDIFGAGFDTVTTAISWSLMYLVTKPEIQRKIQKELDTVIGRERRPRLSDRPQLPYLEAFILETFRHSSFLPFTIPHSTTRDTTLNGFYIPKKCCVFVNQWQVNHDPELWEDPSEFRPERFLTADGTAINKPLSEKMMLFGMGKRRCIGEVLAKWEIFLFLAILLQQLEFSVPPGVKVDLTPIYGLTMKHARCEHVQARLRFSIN

Cytochrome P450 2D6 = Cytochrome P450 2D6 (Homo sapiens, UniProt P10635);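 note: CYP2D6 member of a cytochrome P450 panel assay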
Cytochrome P450 2C19 = Cytochrome P450 2C19 (Homo sapiens, UniProt P33261); test: Cytochrome panel assay with activity outcomes. Panel member name: p450-cyp2c19 Compounds with AC50 equal or less than 10 uM are considered active; assay type: functional
[8] = biological target: T3, Ubiquitin-conjugating enzyme E2 N (Homo sapiens, UniProt P61088); assay type: functional
T3 sequence (P61088 whole entry): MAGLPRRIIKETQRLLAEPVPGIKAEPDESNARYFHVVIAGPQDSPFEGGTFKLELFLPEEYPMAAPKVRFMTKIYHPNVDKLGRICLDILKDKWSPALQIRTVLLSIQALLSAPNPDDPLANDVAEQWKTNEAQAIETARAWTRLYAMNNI

[9] = biological target: T3, Ubiquitin-conjugating enzyme E2 N; assay type: functional; remark: listed apart in the source
Bcl-2-related protein A1 = biological target: T4, Bcl-2-related protein A1 (Mus musculus, UniProt Q07440); assay type: functional;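 note: confirmatory dose–response counterscreen on Bfl-1, used to check hits from a UBC13 polyubiquitin inhibitor campaign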
T4 sequence (Q07440 whole entry): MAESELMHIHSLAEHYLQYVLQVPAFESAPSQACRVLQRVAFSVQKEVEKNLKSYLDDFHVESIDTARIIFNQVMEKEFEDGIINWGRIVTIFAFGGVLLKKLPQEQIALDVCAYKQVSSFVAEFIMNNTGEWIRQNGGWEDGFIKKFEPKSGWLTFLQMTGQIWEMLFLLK

H9c2 = test: cells; assay type: functional, cell-based; conditions: Rattus norvegicus, H9c2, Myocardium;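 note: confirmatory concentration-response retest of ultra-high-throughput screening hits for modulation of myocardial damage; cell death induced by hydrogen peroxide oxidative stress; compound pretreatment for 60 min then peroxide exposure for 2 h; potency is for protecting the cells against peroxide damage rather than for killing them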
[10] = biological target: T5, High affinity choline transporter 1 (Homo sapiens, UniProt Q9GZV3); test: CHT inhibitors, dose response, cell-based, 5-point CRC, membrane potential dye (AID 504840); assay type: functional
T5 sequence (Q9GZV3 whole entry): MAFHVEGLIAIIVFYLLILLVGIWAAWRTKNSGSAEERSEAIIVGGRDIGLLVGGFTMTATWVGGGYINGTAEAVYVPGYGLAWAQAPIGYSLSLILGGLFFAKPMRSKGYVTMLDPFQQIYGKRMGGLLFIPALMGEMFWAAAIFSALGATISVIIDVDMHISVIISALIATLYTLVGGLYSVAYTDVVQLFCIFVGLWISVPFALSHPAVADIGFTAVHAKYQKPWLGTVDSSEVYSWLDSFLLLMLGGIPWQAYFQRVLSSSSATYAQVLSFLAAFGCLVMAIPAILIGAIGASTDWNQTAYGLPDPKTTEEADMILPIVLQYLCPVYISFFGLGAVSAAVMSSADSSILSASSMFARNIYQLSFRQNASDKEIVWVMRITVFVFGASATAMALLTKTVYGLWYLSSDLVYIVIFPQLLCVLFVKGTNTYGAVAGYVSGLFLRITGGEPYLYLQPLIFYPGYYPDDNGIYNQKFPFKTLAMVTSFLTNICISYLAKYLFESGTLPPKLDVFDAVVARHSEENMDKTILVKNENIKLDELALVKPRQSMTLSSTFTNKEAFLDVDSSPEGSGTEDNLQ

[11] = THP-1 cell cytotoxicity, dose response, cytotoxicity control for non-replicating M. tuberculosis project (AID 489025); assay type: functional
[12] = biological target: Dual specificity tyrosine-phosphorylation-regulated kinase 1A (Rattus norvegicus, UniProt Q63470); assay type: biochemical, Homo sapiens
[13] = biological target: T6, Histone-lysine N-methyltransferase NSD2 (Homo sapiens, UniProt O96028); assay type: biochemical
T6 sequence (O96028 whole entry): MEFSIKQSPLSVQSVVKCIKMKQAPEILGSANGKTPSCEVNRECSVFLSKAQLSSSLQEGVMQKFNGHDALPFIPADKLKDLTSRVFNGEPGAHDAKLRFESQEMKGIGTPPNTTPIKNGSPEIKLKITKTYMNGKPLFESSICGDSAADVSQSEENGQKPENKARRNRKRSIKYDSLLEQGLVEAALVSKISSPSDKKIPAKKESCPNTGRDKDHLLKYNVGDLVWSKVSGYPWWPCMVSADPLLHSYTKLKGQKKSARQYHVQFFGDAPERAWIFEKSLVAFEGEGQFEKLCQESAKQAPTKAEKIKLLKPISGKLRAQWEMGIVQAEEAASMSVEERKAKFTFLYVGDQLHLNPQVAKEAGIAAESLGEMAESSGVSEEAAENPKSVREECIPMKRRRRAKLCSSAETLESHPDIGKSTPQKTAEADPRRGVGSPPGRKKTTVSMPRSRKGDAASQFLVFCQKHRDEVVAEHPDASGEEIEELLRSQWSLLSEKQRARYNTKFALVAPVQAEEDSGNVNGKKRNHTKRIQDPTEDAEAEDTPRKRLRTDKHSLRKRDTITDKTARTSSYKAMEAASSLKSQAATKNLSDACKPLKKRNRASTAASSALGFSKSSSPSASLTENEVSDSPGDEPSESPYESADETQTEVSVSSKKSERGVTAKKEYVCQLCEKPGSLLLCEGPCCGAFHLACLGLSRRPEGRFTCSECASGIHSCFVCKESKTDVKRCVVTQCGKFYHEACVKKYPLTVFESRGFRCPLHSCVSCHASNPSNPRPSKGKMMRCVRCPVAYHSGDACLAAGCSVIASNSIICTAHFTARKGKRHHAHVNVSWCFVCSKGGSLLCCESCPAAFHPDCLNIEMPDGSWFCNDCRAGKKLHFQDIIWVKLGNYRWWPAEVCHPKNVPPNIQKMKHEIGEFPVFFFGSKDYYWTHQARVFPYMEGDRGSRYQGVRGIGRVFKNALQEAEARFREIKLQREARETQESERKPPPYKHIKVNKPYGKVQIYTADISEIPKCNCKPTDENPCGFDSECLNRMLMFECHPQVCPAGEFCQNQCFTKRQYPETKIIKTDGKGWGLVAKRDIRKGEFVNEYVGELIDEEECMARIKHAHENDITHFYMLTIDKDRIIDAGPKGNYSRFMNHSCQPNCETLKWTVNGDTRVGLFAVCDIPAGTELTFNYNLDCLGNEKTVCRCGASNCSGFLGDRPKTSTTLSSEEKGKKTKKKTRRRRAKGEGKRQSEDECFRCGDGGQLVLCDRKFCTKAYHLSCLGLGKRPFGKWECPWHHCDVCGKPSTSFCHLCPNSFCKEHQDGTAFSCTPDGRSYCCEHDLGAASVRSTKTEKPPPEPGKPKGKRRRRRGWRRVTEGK

[14] = CEM21 lymphoblast cell cytotoxicity, dose response, cytotoxicity control for viral fusion inhibitor project, CellTiter-Glo luminescence, cherry-picked (AID 652042); assay type: functional, cell-based;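 note: potency for signal decrease meaning cytotoxicity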
[15] = off-target signal loss in HeLa-CEM21 co-culture – HeLa F-luc CTL cells, cherry-picked, counter-screen for HIV-1 Env fusion inhibitor project, dose response (AID 652040); assay type: functional, cell-based;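 note: potency for signal decrease marking cytotoxic or nonspecific inhibition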
[16] = inhibitors of HIV Env-driven cell fusion, dose response, cherry-pick (AID 652057); assay type: functional, cell-based
[17] = inhibitors of clade B AD8 Env fusion, dose response, cell-based, cherry-pick (AID 652062); assay type: functional;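 note: luciferase signal from cell-cell fusion driven by HIV-1 clade B AD8 Env; potency is for inhibitors of fusion seen as a drop in luminescence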
[18] = biological target: G-protein coupled receptor 55 (Homo sapiens, UniProt Q9Y2T6); test: GPR55 antagonists blocking LPI-driven arrestin recruitment, primary screen, imaging, U2OS, beta-arrestin-GFP, LPI agonist (AID 2013); assay type: functional;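 note: antagonist potency measured as reduced agonist-driven arrestin aggregation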
Sequence of G-protein coupled receptor 55 (Q9Y2T6 whole entry): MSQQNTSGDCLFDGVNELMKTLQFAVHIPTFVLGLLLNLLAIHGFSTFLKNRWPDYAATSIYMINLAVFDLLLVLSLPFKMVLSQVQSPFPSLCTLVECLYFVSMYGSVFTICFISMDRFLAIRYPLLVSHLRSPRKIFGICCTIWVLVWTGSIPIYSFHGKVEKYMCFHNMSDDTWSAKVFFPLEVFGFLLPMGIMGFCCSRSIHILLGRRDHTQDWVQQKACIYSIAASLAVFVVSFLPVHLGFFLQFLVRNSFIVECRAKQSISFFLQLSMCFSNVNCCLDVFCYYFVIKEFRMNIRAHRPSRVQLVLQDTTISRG

Sequence of Cytochrome P450 2D6 (P10635 whole entry): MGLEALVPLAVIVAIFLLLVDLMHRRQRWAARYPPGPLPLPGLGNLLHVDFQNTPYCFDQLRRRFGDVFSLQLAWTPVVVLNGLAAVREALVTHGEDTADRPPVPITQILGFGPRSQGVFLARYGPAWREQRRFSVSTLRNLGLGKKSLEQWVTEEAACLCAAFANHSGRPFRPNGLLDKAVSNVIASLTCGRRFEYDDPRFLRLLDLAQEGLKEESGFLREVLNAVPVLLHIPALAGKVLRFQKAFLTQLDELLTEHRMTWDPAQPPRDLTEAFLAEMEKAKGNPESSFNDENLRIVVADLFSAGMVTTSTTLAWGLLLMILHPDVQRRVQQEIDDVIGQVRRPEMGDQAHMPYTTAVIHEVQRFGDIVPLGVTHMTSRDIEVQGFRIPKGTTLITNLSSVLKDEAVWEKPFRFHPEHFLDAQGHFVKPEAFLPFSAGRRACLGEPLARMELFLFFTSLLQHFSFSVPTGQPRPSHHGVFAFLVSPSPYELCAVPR
Sequence of Cytochrome P450 2C19 (P33261 whole entry): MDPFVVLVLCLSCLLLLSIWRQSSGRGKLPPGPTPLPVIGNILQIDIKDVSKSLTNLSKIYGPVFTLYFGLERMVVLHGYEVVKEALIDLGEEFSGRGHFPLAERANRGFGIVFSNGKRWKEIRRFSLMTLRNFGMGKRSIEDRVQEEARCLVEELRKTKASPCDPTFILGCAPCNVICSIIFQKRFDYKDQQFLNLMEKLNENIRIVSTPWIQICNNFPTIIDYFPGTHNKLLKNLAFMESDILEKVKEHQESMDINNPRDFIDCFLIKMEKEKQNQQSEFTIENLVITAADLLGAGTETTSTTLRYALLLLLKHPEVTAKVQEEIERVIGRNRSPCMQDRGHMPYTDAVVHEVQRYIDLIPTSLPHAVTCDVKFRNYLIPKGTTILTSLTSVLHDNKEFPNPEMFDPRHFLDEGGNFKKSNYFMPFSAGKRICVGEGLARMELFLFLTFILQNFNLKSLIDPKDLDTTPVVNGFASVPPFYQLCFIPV
Sequence of Hexokinase-1 (P19367 whole entry): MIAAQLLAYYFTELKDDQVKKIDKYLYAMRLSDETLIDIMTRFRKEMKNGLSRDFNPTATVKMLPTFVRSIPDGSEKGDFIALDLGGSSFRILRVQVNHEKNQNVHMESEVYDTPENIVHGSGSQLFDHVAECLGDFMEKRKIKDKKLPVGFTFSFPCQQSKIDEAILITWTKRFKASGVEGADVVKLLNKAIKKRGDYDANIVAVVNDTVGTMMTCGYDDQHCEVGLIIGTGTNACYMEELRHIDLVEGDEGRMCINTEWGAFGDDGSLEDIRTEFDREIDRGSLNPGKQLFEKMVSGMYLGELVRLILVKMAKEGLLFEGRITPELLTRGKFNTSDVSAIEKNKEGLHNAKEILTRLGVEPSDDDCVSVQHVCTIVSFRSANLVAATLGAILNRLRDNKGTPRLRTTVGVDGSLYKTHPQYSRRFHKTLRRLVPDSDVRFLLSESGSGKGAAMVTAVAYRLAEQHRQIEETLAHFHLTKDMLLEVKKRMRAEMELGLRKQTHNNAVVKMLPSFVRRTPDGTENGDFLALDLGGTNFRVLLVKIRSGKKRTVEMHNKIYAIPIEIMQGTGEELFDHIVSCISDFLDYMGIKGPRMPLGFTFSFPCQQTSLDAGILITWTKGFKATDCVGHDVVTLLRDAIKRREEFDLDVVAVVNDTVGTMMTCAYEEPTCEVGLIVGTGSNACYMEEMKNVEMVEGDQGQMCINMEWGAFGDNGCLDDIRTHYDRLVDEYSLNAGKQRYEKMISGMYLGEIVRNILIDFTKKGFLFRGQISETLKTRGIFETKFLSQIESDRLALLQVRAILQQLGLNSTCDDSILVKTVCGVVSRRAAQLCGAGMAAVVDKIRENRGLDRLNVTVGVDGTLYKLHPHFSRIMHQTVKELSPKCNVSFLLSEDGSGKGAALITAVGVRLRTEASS

Compound: CCCCN1C(=O)C(NC(C)=O)c2cc(C)ccc21 (configuration not stated)
- IC50 (Hexokinase HKDC1): > 80 µM (inactive)
- IC50 (Hexokinase-1): > 80 µM (inactive)

Compound: O=C(Oc1c(CN2CCOCC2)cc(Cl)c2cccnc12)c1ccccc1Cl
- EC50 [1]: 2.86 µM (active)
- AC50 [2]: 9.15 µM (active)
- EC50 [3]: > 160 µM (inactive)
- EC50 (HEK293 [4]): > 59.6 µM (inactive)
- AC50 [5]: 7.37 µM (active)
- EC50 (HEK293 [6]): > 59.6 µM (inactive)
- AC50 [7]: 4.59 µM (active)

Compound: O=C(c1ccco1)N1CCCC(c2nc(O)c3nnn(Cc4ccc(F)cc4)c3n2)C1 (configuration not stated)
- AC50 (Escherichia coli): 42.9 µM (active)

Compound: CC1=NN(c2ccccc2)C(=O)[C@@H]1/N=N\c1ccc([As](=O)(O)O)c(O)c1
- AC50 (Cytochrome P450 1A2): 5.01 µM (inconclusive)
- AC50 (Cytochrome P450 2D6): inconclusive

Compound: Cc1ccc2oc3c(c(=O)c2c1)C(c1cccs1)N(CCCN(C)C)C3=O (configuration not stated)
- AC50 (Escherichia coli): 27.1 µM (active)

Compound: NS(=O)(=O)c1cc(C(=O)O)c(Cl)c([N+](=O)[O-])c1Cl
- AC50 (Cytochrome P450 1A2): 1.26 µM (inconclusive)
- AC50 (Cytochrome P450 2C19): inconclusive
- AC50 (Cytochrome P450 2D6): inconclusive

Compound: COc1ccc(N(C(=O)c2snc(C(N)=O)c2N)C(C(=O)NC2CCCC2)c2ccco2)cc1 (configuration not stated)
- IC50 [8]: 8.44 µM (active)
- IC50 [9]: 8.84 µM (active)
- IC50 (Bcl-2-related protein A1): > 20 µM (inactive)

Compound: O=C(NC1CCCCC1)C(c1ccc2ncccc2c1)N(Cc1ccccc1)C(=O)c1ccc2c(c1)OCCO2 (configuration not stated)
- IC50 (H9c2): > 79 µM (inactive)
- IC50 [10]: 10 µM (active)

Compound: O=c1cc(-c2ccccc2Cl)oc2c([N+](=O)[O-])c(O)cc(O)c12
- CC50 [11]: > 40 µM (active)
- AC50 [12]: 1.22 µM (active)

Compound: CNCc1cc(Br)c(OCC(=O)Nc2ccccc2OC)c(OC)c1
- IC50 [8]: 9.34 µM (active)
- IC50 [9]: 8.66 µM (active)
- AC50 [13]: 14.7 µM (active)
- IC50 (Bcl-2-related protein A1): > 20 µM (inactive)

Compound: Cc1ccc(C(O)(c2ccccc2)c2ccccc2C(C)N(C)C)c(C)c1 (configuration not stated)
- AC50 [14]: 19.6 µM (active)
- AC50 [15]: 39 µM (active)
- AC50 [16]: 20.1 µM (active)
- AC50 [17]: 30.5 µM (active)
- IC50 [18]: 0.799 µM (active)
